# Data as given in patent publication US20250122202A1, “EGFR INHIBITOR, PREPARATION METHOD THEREFOR AND USE THEREOF” (SHANDONG NEW TIME PHARMACEUTICAL CO., LTD., priority 2021, published 2025).
# Experiments:
# [1] = target: EGFR-Del19/T790M/C797S kinase (Homo sapiens, UniProt P00533, C797S/T790M, form not given); assay: In-vitro enzyme experiment 2 (HTRF kinase assay), EGFR Del19 T790M C797S; format: biochemical; conditions: read-out: enzyme inhibition IC50 (nM) EGFR-Del19/T790M/C797S
# Procedure: The specific experiment was as follows: • 1. […] Test method of activity of compound • a) a compound diluent was transferred to each well of an assay plate (784075, Greiner) using Echo 550; • b) the assay plate was sealed and centrifuged at 1,000 g for 1 min; • c) 2×EGFR (D770-N771 ins NPG T790M) was prepared in a 1× kinase buffer; • d) 5 μl of the 2×EGFR (D770-N771 ins NPG T790M) was added to a 384-well assay plate (784075, Greiner); • e) the assay plate was centrifuged at 1,000 g for 30 s and incubated at room temperature for 10 min; • f) 2× TK-substrate-biotin (2 μM) and ATP were added to the 1× kinase buffer and mixed; • g) the reaction was started after adding 5 μl of the TK-substrate-biotin (2 μM) and ATP mixture; • h) the assay plate was centrifuged at 1,000 g for 30 s; and the assay plate was sealed and incubated at room temperature for 40 min; • i) 4× Sa-XL 665 was prepared in an HTRF detection buffer; • j) 5 μl of the Sa-XL 665 and 5 μl of a TK-antibody-cryptate were added to each well of the assay plate; • k) the assay plate was centrifuged at 1,000 g for 30 s and incubated at room temperature for 1 h; and • l) fluorescence signals at 615 nm (cryptate) and 665 nm (XL665) were read on an Envision 2104 reader. • 3. Data analysis • 3.1 Calculation of ratio (665/615 nm) of each well • 3.2 Calculation of inhibition rate
# [formula] • 3.3 Calculation of IC50 value of compound and drawing dose-effect curve of compound • IC50 values were calculated using GraphPad 6.0 by applying a non-linear regression curve (dose-effect relationship-variable slope) of the logarithm of the compound concentration versus the inhibition rate.
# The preparation of the kinase buffer, the test method of the activity of the compound, and the data analysis referred to the relevant definitions in example 117, wherein step c) of the test method of the activity of the compound was replaced by preparing 2×EGFR Del19 T790M C797S in the 1× kinase buffer.
# [2] = tested on: KC-0178:NCI-1975 EGFR-L858R/T790M/C797S; assay: Cell proliferation inhibition experiment (CCK-8), KC-0178; format: cell-based; conditions: Homo sapiens, 72 h
# Excerpt: (§1) Inhibition rate %=[(A0−AS)/(A0−AC)]×100%.
# [3] = tested on: KC-1474:PC-9 EGFR-Del19/T790M/C797S; assay: Cell proliferation inhibition experiment (CCK-8), KC-1474; format: cell-based; conditions: Homo sapiens, 72 h
# Excerpt: as §1
# [4] = target: EGFR D770-N771 ins NPG kinase (Homo sapiens (Human), UniProt P00533, INS770NPG); assay: In-vitro enzyme experiment 1 (HTRF kinase assay), D770-N771 ins NPG kinase; format: biochemical
# Chain of EGFR D770-N771 ins NPG kinase (P00533 other isoform, or with tags, fused parts or gaps del 1-668/ins NPG behind 770 limits assumed): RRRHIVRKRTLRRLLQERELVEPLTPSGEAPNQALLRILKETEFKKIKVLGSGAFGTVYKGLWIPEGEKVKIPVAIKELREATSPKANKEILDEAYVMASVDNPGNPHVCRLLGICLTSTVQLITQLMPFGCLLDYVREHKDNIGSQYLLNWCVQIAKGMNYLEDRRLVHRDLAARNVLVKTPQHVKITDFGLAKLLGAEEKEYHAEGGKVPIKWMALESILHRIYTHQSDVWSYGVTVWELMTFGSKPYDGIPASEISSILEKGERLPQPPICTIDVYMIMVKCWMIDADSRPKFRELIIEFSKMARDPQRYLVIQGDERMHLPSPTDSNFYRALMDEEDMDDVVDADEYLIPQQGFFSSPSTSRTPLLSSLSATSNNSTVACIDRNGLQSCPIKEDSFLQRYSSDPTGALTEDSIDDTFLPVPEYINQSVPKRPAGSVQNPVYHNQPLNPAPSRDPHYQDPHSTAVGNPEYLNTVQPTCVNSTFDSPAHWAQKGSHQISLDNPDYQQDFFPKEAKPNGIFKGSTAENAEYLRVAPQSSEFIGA
# Chain of EGFR-Del19/T790M/C797S kinase (P00533 25-1210 T790M/C797S limits assumed, form open): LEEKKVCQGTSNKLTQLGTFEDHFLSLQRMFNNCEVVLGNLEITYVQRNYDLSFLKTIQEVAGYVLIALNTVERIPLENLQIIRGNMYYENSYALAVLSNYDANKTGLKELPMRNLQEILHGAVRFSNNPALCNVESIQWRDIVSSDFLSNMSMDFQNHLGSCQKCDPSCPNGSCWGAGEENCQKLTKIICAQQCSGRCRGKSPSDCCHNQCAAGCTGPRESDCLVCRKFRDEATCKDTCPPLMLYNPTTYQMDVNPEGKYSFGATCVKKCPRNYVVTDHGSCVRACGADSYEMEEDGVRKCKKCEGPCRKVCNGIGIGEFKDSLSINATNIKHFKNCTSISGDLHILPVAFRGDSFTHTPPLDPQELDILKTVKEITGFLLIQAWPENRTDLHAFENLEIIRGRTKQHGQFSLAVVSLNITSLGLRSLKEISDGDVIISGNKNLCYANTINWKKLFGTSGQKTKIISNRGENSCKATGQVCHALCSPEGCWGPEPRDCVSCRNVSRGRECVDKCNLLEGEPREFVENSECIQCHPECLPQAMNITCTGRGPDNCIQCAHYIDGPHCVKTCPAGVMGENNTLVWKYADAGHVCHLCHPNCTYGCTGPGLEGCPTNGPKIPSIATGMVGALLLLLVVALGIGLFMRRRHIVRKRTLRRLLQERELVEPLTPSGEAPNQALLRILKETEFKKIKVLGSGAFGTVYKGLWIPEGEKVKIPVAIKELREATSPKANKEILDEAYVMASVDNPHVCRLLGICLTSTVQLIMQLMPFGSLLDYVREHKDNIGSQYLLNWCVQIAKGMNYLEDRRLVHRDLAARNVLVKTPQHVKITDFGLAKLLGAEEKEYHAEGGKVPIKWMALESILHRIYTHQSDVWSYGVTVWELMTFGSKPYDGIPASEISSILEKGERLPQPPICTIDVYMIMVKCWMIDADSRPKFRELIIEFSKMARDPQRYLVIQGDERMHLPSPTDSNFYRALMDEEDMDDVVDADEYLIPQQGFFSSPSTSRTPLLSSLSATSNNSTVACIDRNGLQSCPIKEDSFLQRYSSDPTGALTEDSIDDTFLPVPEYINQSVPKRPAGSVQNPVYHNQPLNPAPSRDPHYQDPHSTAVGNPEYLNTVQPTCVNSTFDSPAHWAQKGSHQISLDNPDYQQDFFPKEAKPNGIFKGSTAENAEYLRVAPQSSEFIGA
structure (smiles),measurement,setting,value
CN1CCN(c2ccc(Nc3nc(N[C@H]4CC[C@@H](CO)CC4)c4c(C(=O)c5ccc(F)cc5)c[nH]c4n3)cc2)CC1 [Example 60],IC50,[1],< 10 nM
same,IC50,[2],1 to 2 µM
same,IC50,[3],< 0.1 µM
same,IC50,[4],0.00282 µM
